In US5128366A, “Pyrrole derivatives” (Shinogi & Co., Ltd., priority 1990, dated 1992):

Target: T1, HMG-CoA reductase (Rattus norvegicus, UniProt P51639)
T1 construct: from tissue; host or cells: liver microsomes of Sprague-Dawley rats fed 2% cholestyramine for 2 weeks
T1 sequence (P51639 1-887): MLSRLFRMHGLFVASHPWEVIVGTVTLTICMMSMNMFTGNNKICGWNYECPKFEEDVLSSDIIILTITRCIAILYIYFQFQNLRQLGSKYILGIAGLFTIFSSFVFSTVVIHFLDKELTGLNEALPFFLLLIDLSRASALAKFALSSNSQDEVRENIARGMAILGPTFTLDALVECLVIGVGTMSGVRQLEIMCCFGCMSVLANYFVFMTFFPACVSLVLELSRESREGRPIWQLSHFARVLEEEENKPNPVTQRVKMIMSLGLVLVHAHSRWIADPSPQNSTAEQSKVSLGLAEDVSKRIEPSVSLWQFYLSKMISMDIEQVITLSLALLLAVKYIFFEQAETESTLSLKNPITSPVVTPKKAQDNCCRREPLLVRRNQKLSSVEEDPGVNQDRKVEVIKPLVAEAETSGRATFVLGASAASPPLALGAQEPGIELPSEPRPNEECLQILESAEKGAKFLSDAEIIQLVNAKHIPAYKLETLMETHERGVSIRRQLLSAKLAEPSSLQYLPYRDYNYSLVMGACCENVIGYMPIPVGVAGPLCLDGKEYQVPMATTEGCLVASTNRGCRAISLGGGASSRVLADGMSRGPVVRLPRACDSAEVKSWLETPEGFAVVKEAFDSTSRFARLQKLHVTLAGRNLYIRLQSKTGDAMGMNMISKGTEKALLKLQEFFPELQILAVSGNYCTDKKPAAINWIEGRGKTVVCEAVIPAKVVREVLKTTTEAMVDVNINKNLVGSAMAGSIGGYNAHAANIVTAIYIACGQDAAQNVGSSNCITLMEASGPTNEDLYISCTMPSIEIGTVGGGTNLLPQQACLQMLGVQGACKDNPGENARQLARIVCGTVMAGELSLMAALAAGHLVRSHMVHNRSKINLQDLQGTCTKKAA
Assay: HMG-CoA reductase inhibitory effect in rat liver microsome, [3-14C]HMG-CoA, TLC and scintillation counting
Assay type: biochemical
Settings: comparative activity, Mevinolin (sodium salt) as reference drug = 100, sodium salt of the test compound, 37° C., 30 minutes
Method: (1) Preparation of Rat Liver Microsome
Sprague-Dawley rats, which were in free access to ordinary diets containing 2% cholestyramine and water for 2 weeks, were used for the preparation of rat liver microsome, which were then purified according to the manner by Kuroda et al., Biochem. Biophys. Act, 486, 70 (1977). The microsomal fraction obtained by centrifugation at 105000×g was washed once with a buffered solution containing 15 mM nicotinamide and 2 mM magnesium chloride (in a 100 mM potassium phosphate buffer, pH 7.4). It was homogenized with a buffer containing nicotinamide and magnesium chloride at the same weight as the liver employed. The thus obtained homogenate was cooled down to and kept at -80° C.
(2) Measurement of the HMG-CoA Reductase Inhibitory Activities
The rat liver microsome (100 μl), which was preserved at -80° C., was […] at 0° C. and diluted with 0.7 ml of a cold potassium phosphate buffer (100 mM, pH 7.4 ). This was mixed with 0.8 ml of 50 mM EDTA (buffered with the aforementioned potassium phosphate buffer) and 0.4 ml of 100 mM dithiothreitol solution (buffered with the aforementioned potassium phosphate buffer), and the mixture was kept at 0° C. The microsome solution, 1.675 ml, was mixed with 670 μl of 25 mM NADPH (buffered with the aforementioned potassium phosphate buffer), and the solution was added to the solution of 0.5 mM [3^-14 C]HMG-CoA (3 mCi/mmol). Potassium phosphate buffer of sodium salt of the test compound 5 μl is added to the mixture of microsome and HMG-CoA 45 μl, and the resulting mixture was incubated at 37° C. for 30 minutes and cooled. After termination of the reaction by addition of 10 μl of 2N-HCl, the mixture was incubated again at 37° C. for 15 minutes and then 30 μl of this mixture was applied to thin-layer chromatography with silica gel of 0.5 mm in thickness (Merck AG, Art 5744). The chromatograms were developed in toluene/acetone (1/1) and the sections, whose Rf value was between 0.45 to 0.6, were scraped. The obtained products were put into a vial containing 8 ml of scintillator to measure specific radio-activity with a scintillation counter.

Row | Compound | HMG-CoA reductase inhibitory activities
1 | CC[C@H](C)C(=O)O[C@H]1C[C@@H](C)C=C2C=C[C@H](C)[C@H](CC[C@@H](O)C[C@@H](O)CC(=O)O)[C@H]21 [Mevinolin Na, Mevinolin, reference compound] | 100
2 | CCS(=O)(=O)n1c(C)c(-c2ccc(F)cc2)c(/C=C/[C@@H](O)C[C@@H](O)CC(=O)O)c1C(C)C (relative stereo) [Ia-18, 7-[4-(4-Fluorophenyl)-2-isopropyl-5-methyl-(1-ethylsulfonyl)pyrrol-3-yl]-(3R*,5S*)-dihydroxy-(E)-6-heptenate] | 228
3 | Cc1c(-c2ccc(F)cc2)c(/C=C/[C@@H](O)C[C@@H](O)CC(=O)O)c(C(C)C)n1S(C)(=O)=O [Id-2, (+) Sodium 7-[4-(4-fluorophenyl)-2-isopropyl-5-methyl-(1-methylsulfonyl)pyrrol-3-yl]-(3R,5S)-dihydroxy-(E)-6-heptenate] | 418
4 | CC(C)c1c(/C=C/[C@@H](O)C[C@@H](O)CC(=O)O)c(-c2ccc(F)cc2)cn1S(C)(=O)=O (relative stereo) [Ia-10] | 263
5 | Cc1c(-c2ccc(F)cc2)c(/C=C/[C@@H](O)C[C@@H](O)CC(=O)O)c(C(C)C)n1S(=O)(=O)Cc1ccccc1 (relative stereo) [Ia-19, 7-[4-(4-Fluorophenyl)-2-isopropyl-5-methyl-(1-benzylsulfonyl)-pyrrol-3-yl]-(3R*,5S*)-dihydroxy-(E)-6-heptenate] | 105
6 | CC(C)c1c(/C=C/[C@@H](O)C[C@@H](O)CC(=O)O)c(-c2ccc(F)cc2)c(-c2ccc(F)cc2)n1S(C)(=O)=O (relative stereo) [Ia-17, 7-.upsilon.4,5-Di-(4-fluorophenyl)-2-isopropyl-1-(methylsulfonyl)-pyrrol-3-yl]-(3R*,5S*)-dihydroxy-(E)-6-heptenoic acid] | 293
